Tests used:
Format in all cases: cell-based
TK-10 = assay: NCI screen, growth of human tumor cells: Renal Cancer TK-10; settings: TK-10 (Renal Cancer), 10^−4 molar
Procedure: (§1) In the NCI screening process, each compound was tested and described by a minimum of 60 data points. The test data include, but are not limited to the type of cancer, the molar concentration used in the screen, and the percent growth of the cancer. In some cases, NMR and elemental analysis were used for structural assignment.

SK-MEL-28 = assay: NCI screen, growth of human tumor cells: Melanoma SK-MEL-28; settings: SK-MEL-28 (Melanoma), 10^−4 molar
In short: (§2)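 Under the NCI protocol, every compound is profiled with sixty or more data points. Each point ties a cancer type and a molar screening concentration to a percent growth value.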

BT-549 = assay: NCI screen, growth of human tumor cells: Breast Cancer BT-549; settings: BT-549 (Breast Cancer), 10^−4 molar
In short: as §2

HOP-92 = assay: NCI screen, growth of human tumor cells: Non-Small Cell Lung HOP-92; settings: HOP-92 (Non-Small Cell Lung), 10^−4 molar
In short: as §2

UO-31 = assay: NCI screen, growth of human tumor cells: Renal Cancer UO-31; settings: UO-31 (Renal Cancer), 10^−4 molar
In short: as §2

COLO205 = assay: NCI screen, growth of human tumor cells: Colon Cancer COLO205
In short: as §2

MCF7/ADR-RES = assay: NCI screen, growth of human tumor cells: Breast Cancer MCF7/ADR-RES; settings: MCF7/ADR-RES, 10^−4 molar
In short: as §2

SK-MEL-5 = assay: NCI screen, growth of human tumor cells: Melanoma SK-MEL-5; settings: SK-MEL-5, 10^−4 molar
In short: as §2

UACC-257 = assay: NCI screen, growth of human tumor cells: Melanoma UACC-257; settings: UACC-257 (Melanoma), 10^−4 molar
In short: as §2

human cancer cells = assay: NCI screen summary over the cancers tested (negative growth of human cancer cells); settings: 10^−4 M conc.
Procedure: as §1
The derivatives in the tables are grouped using the same category as in the tables 1-6.

HOP-62 = assay: NCI screen, growth of human tumor cells: Non-Small Cell Lung HOP-62; settings: HOP-62, 10^−4 molar
In short: as §2

OVCAR-3 = assay: NCI screen, growth of human tumor cells: Ovarian Cancer OVCAR-3; settings: OVCAR-3, 10^−4 molar
In short: as §2

MOLT-4 = assay: NCI screen, growth of human tumor cells: Leukemia MOLT-4; settings: MOLT-4 (Leukemia), 10^−4 molar
In short: as §2

SF-268 = assay: NCI screen, growth of human tumor cells: CNS Cancer SF-268
In short: as §2

UACC-62 = assay: NCI screen, growth of human tumor cells: Melanoma UACC-62; settings: UACC-62, 10^−4 molar
In short: as §2

SNB-75 = assay: NCI screen, growth of human tumor cells: CNS Cancer SNB-75
In short: as §2

M14 = assay: NCI screen, growth of human tumor cells: Melanoma M14; settings: M14, 10^−4 molar
In short: as §2

SNB-19 = assay: NCI screen, growth of human tumor cells: CNS Cancer SNB-19; settings: SNB-19, 10^−4 molar
Procedure: as §1

NCI-H522 = assay: NCI screen, growth of human tumor cells: Non-Small Cell Lung NCI-H522
In short: as §2

OVCAR-5 = assay: NCI screen, growth of human tumor cells: Ovarian Cancer OVCAR-5; settings: OVCAR-5, 10^−4 molar
In short: as §2

SF-295 = assay: NCI screen, growth of human tumor cells: CNS Cancer SF-295
In short: as §2

MDA-MB-231/ATCC = assay: NCI screen, growth of human tumor cells: Breast Cancer MDA-MB-231/ATCC; settings: MDA-MB-231/ATCC (Breast Cancer), 10^−4 molar
Procedure: as §1

MALME-3M = assay: NCI screen, growth of human tumor cells: Melanoma MALME-3M; settings: MALME-3M
In short: as §2

HCC-2998 = assay: NCI screen, growth of human tumor cells: HCC-2998 (listed under Non-Small Cell Lung); settings: HCC-2998, 10^−4 molar
Procedure: as §1

HCT-15 = assay: NCI screen, growth of human tumor cells: Colon Cancer HCT-15; settings: HCT-15 (Colon Cancer), 10^−4 molar
In short: as §2

DU-145 = assay: NCI screen, growth of human tumor cells: Prostate Cancer DU-145; settings: DV-145, 10^−4 molar
In short: as §2

KM12 = assay: NCI screen, growth of human tumor cells: Colon Cancer KM12; settings: KM12, 10^−4 molar
In short: as §2

PC-3 = assay: NCI screen, growth of human tumor cells: Prostate Cancer PC-3; settings: PC-3, 10^−4 molar
Procedure: as §1

NCI-H460 = assay: NCI screen, growth of human tumor cells: Non-Small Cell Lung NCI-H460; settings: NCI-H460 (Non-Small Cell Lung), 10^−4 molar
In short: as §2

AS49/ATCC = assay: NCI screen, growth of human tumor cells: Non-Small Cell Lung AS49/ATCC; settings: A549/ATCC, 10^−4 molar
Procedure: as §1

HCT-116 = assay: NCI screen, growth of human tumor cells: Colon Cancer HCT-116; settings: HCT-116, 10^−4 molar
In short: as §2

SR = assay: NCI screen, growth of human tumor cells: Leukemia SR; settings: SR
In short: as §2

RPMI-8226 = assay: NCI screen, growth of human tumor cells: Leukemia RPMI-8226; settings: RPMI-8226 (Leukemia), 10^−4 molar
In short: as §2

U-251 = assay: NCI screen, growth of human tumor cells: CNS Cancer U-251; settings: U251, 10^−4 molar
In short: as §2

EKVX = assay: NCI screen, growth of human tumor cells: Non-Small Cell Lung EKVX; settings: EKVX, 10^−4 molar
In short: as §2

IGROVI = assay: NCI screen, growth of human tumor cells: Ovarian Cancer IGROVI; settings: IGROVI
In short: as §2

SN12C = assay: NCI screen, growth of human tumor cells: Renal Cancer SN12C; settings: SN12C (Renal Cancer), 10^−4 molar
In short: as §2

HT29 = assay: NCI screen, growth of human tumor cells: Colon Cancer HT29; settings: HT-29, 10^−4 molar
Procedure: as §1

CCRF-CEM = assay: NCI screen, growth of human tumor cells: Leukemia CCRF-CEM; settings: CCRF-CEM
In short: as §2

CAKI-1 = assay: NCI screen, growth of human tumor cells: Renal Cancer CAKI-1; settings: CAKI-1, 10^−4 molar
In short: as §2

NCI-H322M = assay: NCI screen, growth of human tumor cells: Non-Small Cell Lung NCI-H322M; settings: 10^−4 molar
Procedure: as §1

HS 578T = assay: NCI screen, growth of human tumor cells: Breast Cancer HS 578T; settings: H5-578T
In short: as §2

SK-MEL-2 = assay: NCI screen, growth of human tumor cells: Melanoma SK-MEL-2; settings: SK-MEL-2, 10^−4 molar
In short: as §2

OVCAR-4 = assay: NCI screen, growth of human tumor cells: Ovarian Cancer OVCAR-4; settings: OVCAR-4 (Ovarian Cancer), 10^−4 molar
In short: as §2

NCI-H23 = assay: NCI screen, growth of human tumor cells: Non-Small Cell Lung NCI-H23; settings: NCI-H23, 10^−4 molar
In short: as §2

propane-1-[hydroxyhydrogensulfate]-3-(2-methylnaphthyl)-3,3-(ethylenedisulfonate) [NSC 693879]
percent of growth of human tumor cells (TK-10): −3%
percent of growth of human tumor cells (SK-MEL-28): −5%
percent of growth of human tumor cells (BT-549): −34%
percent of growth of human tumor cells (HOP-92): −35%
percent of growth of human tumor cells (UO-31): −48%
% Growth (COLO205; COLO205, 10^−4 molar): −73%
% Growth (COLO205; COLO205, 10^−5 molar): 57%
% Growth (MCF7/ADR-RES): −54%
% Growth (SK-MEL-5): −100%
percent of growth of human tumor cells (UACC-257): −32%
percentage of cancers that had −100% growth (human cancer cells): 20%
Percentage of cancers showing negative growth cancers tested (human cancer cells; cancers with negative growth / cancers tested): 100%
% Growth (HOP-62): −65%
% Growth (OVCAR-3): −100%
percent of growth of human tumor cells (MOLT-4): −16%
% Growth (SF-268; SF-268, 10^−4 molar): −56%
% Growth (SF-268; SF-268, 10^−5 molar): 59%
% Growth (UACC-62): −66%
% Growth (SNB-75; SNB-75, 10^−4 molar): −62%
% Growth (SNB-75; SNB-75, 10^−5 molar): 55%
% Growth (M14): −100%
% Growth (SNB-19): −72%
% Growth (NCI-H522; NCI-H522, 10^−4 molar): −100%
% Growth (NCI-H522; NCI-H522, 10^−5 molar): 35%
% Growth (NCI-H522; NCI-H522, 10^−6 molar): 63%
% Growth (OVCAR-5): −100%
% Growth (SF-295; SF-295, 10^−4 molar): −82%
% Growth (SF-295; SF-295, 10^−5 molar): 58%
percent of growth of human tumor cells (MDA-MB-231/ATCC): −54%
% Growth (MALME-3M; 10^−4 molar): −100%
% Growth (MALME-3M; 10^−5 molar): 44%
% Growth (MALME-3M; 10^−6 molar): 62%
% Growth (HCC-2998): −78%
percent of growth of human tumor cells (HCT-15): −39%
% Growth (DU-145): −100%
% Growth (KM12): −92%
% Growth (PC-3): −100%
percent of growth of human tumor cells (NCI-H460): −58%
% Growth (AS49/ATCC): −62%
% Growth (HCT-116): −79%
% Growth (SR; 10^−4 molar): −19%
% Growth (SR; 10^−5 molar): 13%
percent of growth of human tumor cells (RPMI-8226): −28%
% Growth (U-251): −100%
% Growth (EKVX): −90%
% Growth (IGROVI; 10^−4 molar): −89%
% Growth (IGROVI; 10^−5 molar): 50%
% Growth (IGROVI; 10^−6 molar): 60%
% Growth (IGROVI; 10^−7 molar): 52%
percent of growth of human tumor cells (SN12C): −57%
% Growth (HT29): −86%
% Growth (CCRF-CEM; 10^−4 molar): −33%
% Growth (CCRF-CEM; 10^−5 molar): 52%
% Growth (CAKI-1): −87%
percent of growth of human tumor cells (NCI-H322M; NCI-H322M (Non-Small Cell Lung)): −71%
% Growth (NCI-H322M; NCI-H322M): −71%
% Growth (HS 578T; 10^−4 molar): −49%
% Growth (HS 578T; 10^−5 molar): 55%
% Growth (SK-MEL-2): −99%
percent of growth of human tumor cells (OVCAR-4): −40%
% Growth (NCI-H23): −65%

From patent publication US8124793B2, “Derivatives of ethylene methanedisulfonate as cancer chemotherapeutic agents” (priority 2007, dated 2012)
